Legend:
[1] = test system: RhoA in MDA-MB-231 cells expressing kinase-dead TrkA; assay: Ratiometric FRET RhoA activation, kinase-dead TrkA cells; type: cell-based; conditions: for relocation of activated RhoA to the migration front / local RhoA activation, in words: 25 min NGF, relocation observed with scramble peptide
Description: MDA-MB-231 native or KD cells were seeded (5000 cells/well; ovn, 37 °C) in a chambered coverglass system (Lab-Tek®) coated with a type I collagen matrix (100 μg/mL; Corning). These cells were transfected using the pBabe-puro-RhoA plasmid (0.15 μg; Addgene plasmid #12602) diluted in a buffer solution (JetOPTIMUS® buffer) and a transfection agent (TA; 10 min). The mixture was incorporated into the culture medium (4 h; 37 °C). Two to three hours before image acquisition, the cells expressing the RhoA biosensor were starved in fresh EMEM containing 0.1% FBS and no phenol red. During image acquisition, the cells were maintained at 37 °C and with 5% CO2 in an incubation chamber installed under a microscope. Images were collected using a ZEISS LSM 880 confocal microscope with a plan-apochromat 63×/1.4 oil differential interference contrast (DIC) objective. The argon laser was tuned to emit 458 nm and 514 nm laser lines through a 470 to 500 nm bandpass emission filter (BP470–500) for CFP detection and a 530 nm longpass emission filter (LP530) for YFP detection. The emission of the CFP, FRET and YFP channels was recorded. The fluorescence emission ratios were computed using ImageJ software, which was also used to generate a report showing the FRET efficiency and intensity signal for each channel.
To further elucidate the mechanism of action of CD44v3 mimetic peptide 4, we studied its effect on the TrkA signaling pathway. […] Additionally, to confirm that this effect was independent of TrkA phosphorylation, we measured RhoA activation in MDA-MB-231 cells expressing dead TrkA kinase, which cannot be phosphorylated (Fig. 5D). […]
Fig. 5 CD44v3 is implicated in the phospho-TrkA-independent activation of RhoA GTPase. Phosphorylation of TrkA was measured in the presence of a scramble peptide or CD44v3 mimetic peptide 4 (P4) in the presence or absence of NGF (A). […] Phosphorylation of TrkA and downstream Akt in wild-type MDA-MB-231 and MDA-MB-231 cells expressing kinase-dead TrkA, as determined by western blotting (D). […]

SUM-159-PT cells = assay: Clonogenicity assay, SUM-159-PT; type: cell-based; conditions: Supplementary Fig. 9 A & B (P4; same observations = colony forming units reduced as in MDA-MB-231), Supplementary Fig. 10 B (siCD44v3)

IDDDEDFISST [Peptide 4, mimetic peptide 4 (…) corresponding to the C-terminal region of CD44v3]
relocation of activated RhoA to the migration front / local RhoA activation, in words ([1]; not with peptide 4, listed as CD44v3 mimetic peptide 4): relocation of activated RhoA to the migration front of the control cells with the scramble peptide after 25 min of NGF treatment but not with CD44v3 mimetic peptide 4 | relocation of activated RhoA to the migration front / local RhoA activation, in words ([1]; not with peptide 4, listed as P4): impedes local RhoA activation independent of TrkA phosphorylation | NGF-induced increase in proportion of active RhoA, in words ([1]; 45 min NGF, statement: increased with scramble peptide, not with peptide 4): NGF increased the proportion of active RhoA after 45 min in the presence of the scramble peptide (Fig. 5E) but not CD44v3 mimetic peptide 4 | effect on clonogenic growth of SUM-159-PT cells (SUM-159-PT cells): The same observations were made in SUM-159PT

Source: PMC8962522, “Direct interaction of TrkA/CD44v3 is essential for NGF-promoted aggressiveness of breast cancer cells” (Journal of Experimental & Clinical Cancer Research : CR, 2022)
